Source: patent US12215093B2, “Bicyclic carboxamides and methods of use thereof” (Tempest Therapeutics, Inc., priority 2018, dated 2025)

Assays:
[1] = molecular target: EP2 (Homo sapiens, UniProt P43116);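 further: functional calcium flux assay in stably transfected HEK293 cells expressing EP2 coupled via a promiscuous G protein, clytin luminescence read as area under the curve, 30 min compound preincubation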
Description: (§1) Each receptor subtype has an additional promiscuous G protein added in order to couple the aforementioned receptor to the calcium signaling pathway. The parental cell line used also expresses a novel variant of clytin, a calcium-activated photo-protein, to enable sensitive luminescent detection. Briefly, cells were plated at 50,000 cells-per-well in black, clear bottom 96-well plates. The plated cells were allowed to sit at room temperature for 30 min prior to transferring to a humidified, 37° C., 5% CO2 incubator for 18 to 24 h. Assay buffer (HBSS with 20 mM HEPES) and loading buffer (assay buffer plus 10 μM coelenterazine) were prepared on the day of the assay. Assays were performed by aspirating media from the assay plate and washing once with assay buffer, then replacing with loading buffer and allowing the cells to incubate for 1.5 h at room temperature. Compounds were prepared in assay buffer at a 3× final concentration in non-binding plates. Compounds were added to the cell plates and incubated for 30 min at room temperature. The prostanoid receptor ligand PGE2 was prepared at a 4× dilution ratio for a final concentration of 10 nM. Plates were run on a Flexstation™ using a 100 ms integration luminescence protocol for a total of 60 sec with ligand addition at 15 sec. Data were obtained from relative light units as measured by area under the curve.

[2] = molecular target: T1, EP4 (Homo sapiens, UniProt P35408); assay: Functional calcium flux assay, EP4; format: cell-based; settings: stably transfected HEK293 cells; PGE2 10 nM; read-out: EP4 Ca2+-flux assay IC50
T1 construct: host or cells: stably transfected HEK293 cells co-expressing a promiscuous G protein and a clytin variant
T1 sequence (P35408 whole entry): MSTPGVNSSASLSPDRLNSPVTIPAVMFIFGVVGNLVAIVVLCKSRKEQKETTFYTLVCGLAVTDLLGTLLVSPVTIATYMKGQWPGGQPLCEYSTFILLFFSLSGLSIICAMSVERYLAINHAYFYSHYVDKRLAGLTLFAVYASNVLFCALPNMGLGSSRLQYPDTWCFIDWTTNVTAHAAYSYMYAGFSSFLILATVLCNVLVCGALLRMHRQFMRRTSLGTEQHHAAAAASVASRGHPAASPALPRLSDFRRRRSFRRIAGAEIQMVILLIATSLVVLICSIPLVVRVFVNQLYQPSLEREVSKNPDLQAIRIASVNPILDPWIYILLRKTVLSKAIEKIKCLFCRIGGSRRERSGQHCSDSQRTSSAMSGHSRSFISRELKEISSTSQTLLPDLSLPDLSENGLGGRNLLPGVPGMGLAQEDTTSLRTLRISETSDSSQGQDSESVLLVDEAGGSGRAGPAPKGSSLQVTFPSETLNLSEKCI
Description: as §1

Chain of EP2 (P43116 whole entry): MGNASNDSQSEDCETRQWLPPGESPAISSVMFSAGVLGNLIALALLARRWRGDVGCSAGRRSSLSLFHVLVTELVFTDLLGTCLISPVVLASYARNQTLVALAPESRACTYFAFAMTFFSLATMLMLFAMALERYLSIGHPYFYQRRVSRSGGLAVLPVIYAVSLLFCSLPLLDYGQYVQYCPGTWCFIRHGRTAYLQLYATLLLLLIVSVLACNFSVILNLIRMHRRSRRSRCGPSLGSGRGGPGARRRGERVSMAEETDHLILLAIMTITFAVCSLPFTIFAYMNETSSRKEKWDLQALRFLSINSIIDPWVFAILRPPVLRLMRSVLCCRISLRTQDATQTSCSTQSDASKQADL

| IC50 [1] | IC50 [2] | SMILES |
| --- | --- | --- |
| 0.056 µM | < 0.001 µM | O=C(NC1CC2(C1)CC(C(=O)O)C2)c1ccc(Cl)c2cnn(Cc3ccc(N4CC5CC5(C(F)F)C4)c(F)c3)c12 (racemic) [Example 76, (Sa)-6-(4-chloro-1-(4-((racemic)-1-(difluoromethyl)-3-azabicyclo[3.1.0]hexan-3-yl)-3-fluorobenzy1)-1H-indazole-7-carboxamido)spiro[3.3]heptane-2-carboxylic acid] |
| 0.071 µM | < 0.001 µM | CC(c1ccc(N2C[C@H]3C[C@H]3C2)cc1)n1ncc2c(Cl)ccc(C(=O)NC3CC4(C3)CC(C(=O)O)C4)c21 (mixture of isomers) [Example 77, (Sa)-6-(1-((racemic)-1-(4-((1R,5S)-3-azabicyclo[3.1.0]hexan-3-yl)phenyl)ethyl)-4-chloro-1H-indazole-7-carboxamido)spiro[3.3]heptane-2-carboxylic acid] |
| < 0.025 µM | 0.0013 µM | COc1cccc(-c2ccc(C(C)n3ncc4cccc(C(=O)NC5CC6(C5)CC(C(=O)O)C6)c43)cc2)c1 (racemic) [Example 113, (Sa)-6-(1-((racemic)-1-(3′-methoxy-[1,1′-bipheny]-4-yl)-ethyl)-1H-indazole-7-carboxamido)spiro[3.3]heptane-2-carboxylic acid] |
| 0.057 µM | 0.0055 µM | COc1cc(C#N)cc(-c2ccc(C(C)n3ncc4cccc(C(=O)NC5CC6(C5)CC(C(=O)O)C6)c43)cc2)c1 (racemic) [Example 114, (Sa)-6-(1-((racemic)-1-(3′-cyano-5′-methoxy-[1,1′-biphenyl]-4-yl)-ethyl)-1H-indazole-7-carboxamido)spiro[3.3]heptane-2-carboxylic acid] |
| 0.069 µM | 0.0029 µM | CCOc1cc(-c2ccc(C(C)n3ncc4cccc(C(=O)NC5CC6(C5)CC(C(=O)O)C6)c43)cc2)ccn1 (racemic) [Example 115, (Sa)-6-(1-((racemic)-1-(4-(2-ethoxypyridin-4-yl)phenyl)-ethyl)-1H-indazole-7-carboxamido)spiro[3.3]heptane-2-carboxylic acid] |
| < 0.025 µM | 0.0028 µM | CC(c1ccc(-c2ccccc2)cc1)n1ccc2c(F)ccc(C(=O)NC3CC4(C3)CC(C(=O)O)C4)c21 (racemic) [Example 116, (S)-6-(1-(racemic)-1-([1,1′-biphenyl]-4-yl)-ethyl)-4-fluoro-1H-indole-7-carboxamido)spiro[3.3]heptane-2-carboxylic acid] |
| 0.087 µM | 0.014 µM | COc1cccc(-c2ccc(C(C)n3ccc4c(F)ccc(C(=O)NC5CC6(C5)CC(C(=O)O)C6)c43)cc2)c1 (racemic) [Example 117, (Sa)-6-(4-fluoro-1-((racemic)-1-(3′-methoxy-[1,1′-biphenyl]-4-yl)-ethyl)-1H-indole-7-carboxamido)spiro[3.3]heptane-2-carboxylic acid] |
| 0.031 µM | 0.0026 µM | CCOc1cc(-c2ccc(C(C)n3ccc4c(F)ccc(C(=O)NC5CC6(C5)CC(C(=O)O)C6)c43)cc2)ccn1 (racemic) [Example 118, (Sa)-6-(1-((racemic)-1-(4-(2-ethoxypyridin-4-yl)phenyl)-ethyl)-4-fluoro-1H-indole-7-carboxamido)spiro[3.3]heptane-2-carboxylic acid] |
| 0.059 µM | 0.0038 µM | COc1ccc(-c2ccc(C(C)n3ccc4c(F)ccc(C(=O)NC5CC6(C5)CC(C(=O)O)C6)c43)cc2)cn1 (racemic) [Example 119, (Sa)-6-(4-fluoro-1-((racemic)-1-(4-(6-methoxypyridin-3-yl)phenyl)-ethyl)-1H-indole-7-carboxamido)spiro[3.3]heptane-2-carboxylic acid] |
| < 0.025 µM | 0.011 µM | COc1ncc(-c2ccc(C(C)n3ccc4c(F)ccc(C(=O)NC5CC6(C5)CC(C(=O)O)C6)c43)cc2)cc1Cl (racemic) [Example 120, (Sa)-6-(1-((racemic)-1-(4-(5-chloro-6-methoxypyridin-3-yl)phenyl)-ethyl)-4-fluoro-1H-indole-7-carboxamido)spiro[3.3]heptane-2-carboxylic acid] |
| < 0.025 µM | 0.0047 µM | COc1cccc(-c2ccc(C(C)n3ncc4c(Cl)ccc(C(=O)NC5CC6(C5)CC(C(=O)O)C6)c43)cc2)c1 (racemic) [Example 122, (Sa)-6-(4-chloro-1-((racemic)-1-(3′-methoxy-[1,1′-biphenyl]-4-yl)-ethyl)-1H-indazole-7-carboxamido)spiro[3.3]heptane-2-carboxylic acid] |
| 0.06 µM | 0.012 µM | COc1cc(C#N)cc(-c2ccc(C(C)n3ncc4c(Cl)ccc(C(=O)NC5CC6(C5)CC(C(=O)O)C6)c43)cc2)c1 (racemic) [Example 123, (Sa)-6-(4-chloro-1-((racemic)-1-(3′-cyano-5′-methoxy-[1,1′-biphenyl]-4-yl)-ethyl)-1H-indazole-7-carboxamido)spiro[3.3]heptane-2-carboxylic acid] |
| < 0.025 µM | 0.0039 µM | CCOc1cc(-c2ccc(C(C)n3ncc4c(Cl)ccc(C(=O)NC5CC6(C5)CC(C(=O)O)C6)c43)cc2)ccn1 (racemic) [Example 124, (Sa)-6-(4-chloro-1-((racemic)-1-(4-(2-ethoxypyridin-4-yl)phenyl)-ethyl)-1H-indazole-7-carboxamido)spiro[3.3]heptane-2-carboxylic acid] |
| < 0.025 µM | 0.0013 µM | CCOc1cccc(-c2ccc(C(C)n3ncc4c(Cl)ccc(C(=O)NC5CC6(C5)CC(C(=O)O)C6)c43)cc2)n1 (racemic) [Example 134, (Sa)-6-(4-chloro-1-((racemic)-1-(4-(6-ethoxypyridin-2-yl)phenyl)-ethyl)-1H-indazole-7-carboxamido)spiro[3.3]heptane-2-carboxylic acid] |
| < 0.025 µM | 0.0072 µM | CC(c1ccc(-c2ccccc2)cc1)n1ncc2cc(Cl)cc(C(=O)NC3CC4(C3)CC(C(=O)O)C4)c21 (racemic) [Example 173, (Sa)-6-(1-((racemic)1-([1,1′-Biphenyl]-4-yl)ethyl)-5-chloro-1H-indazole-7-carboxamido)spiro[3.3]heptane-2-carboxylic acid] |
| < 0.025 µM | < 0.001 µM | COc1cc(C#N)cc(-c2ccc(C(C)n3ncc4cccc(C(=O)NC5CC6(C5)CC(C(=O)O)C6)c43)cc2)c1 (single isomer, unassigned) [Example 126, (Sa)-6-(1-((R) or (S)-1-(3′-cyano-5′-methoxy-[1,1′-biphenyl]-4-yl)-ethyl)-1H-indazole-7-carboxamido)spiro[3.3]heptane-2-carboxylic acid] |
| < 0.025 µM | 0.0012 µM | CC(c1ccc(-c2ccccc2)cc1)n1ccc2c(F)ccc(C(=O)NC3CC4(C3)CC(C(=O)O)C4)c21 (single isomer, unassigned) [Example 127, (Sa)-6-(1-((R) or (S)-1-([1,1′-biphenyl]-4-yl)-ethyl)-4-fluoro-1H-indole-7-carboxamido)spiro[3.3]heptane-2-carboxylic acid] |
| < 0.025 µM | 0.0019 µM | COc1cccc(-c2ccc(C(C)n3ccc4c(F)ccc(C(=O)NC5CC6(C5)CC(C(=O)O)C6)c43)cc2)c1 (single isomer, unassigned) [Example 128, (Sa)-6-(4-fluoro-1-((R) or (S)-1-(3′-methoxy-[1,1′-biphenyl]-4-yl)-ethyl)-1H-indole-7-carboxamido)spiro[3.3]heptane-2-carboxylic acid] |
| 0.061 µM | 0.003 µM | CCOc1cc(-c2ccc(C(C)n3ccc4c(F)ccc(C(=O)NC5CC6(C5)CC(C(=O)O)C6)c43)cc2)ccn1 (single isomer, unassigned) [Example 129, (Sa)-6-(1-((R) or (S)-1-(4-(2-ethoxypyridin-4-yl)phenyl)-ethyl)-4-fluoro-1H-indole-7-carboxamido)spiro[3.3]heptane-2-carboxylic acid] |
| < 0.025 µM | < 0.001 µM | CCOc1cc(-c2ccc(C(C)n3ncc4c(Cl)ccc(C(=O)NC5CC6(C5)CC(C(=O)O)C6)c43)cc2)ccn1 (single isomer, unassigned) [Example 131, (Sa)-6-(4-chloro-1-((R) or (S)-1-(4-(2-ethoxypyridin-4-yl)phenyl)-ethyl)-1H-indazole-7-carboxamido)spiro[3.3]heptane-2-carboxylic acid] |
| < 0.025 µM | 0.0022 µM | CC(c1ccc(N2C[C@H]3C[C@H]3C2)cc1)n1ncc2c(Cl)ccc(C(=O)NC3CC4(C3)CC(C(=O)O)C4)c21 (single isomer, unassigned) [Example 132, (Sa)-6-(1-((R) or (S)-1-(4-((1R, 5S)-3-azabicyclo[3.1.0]hexan-3-yl)phenyl)ethyl)-4-chloro-1H-indazole-7-carboxamido)spiro[3.3]heptane-2-carboxylic acid] |
| 0.078 µM | < 0.001 µM | CN(C)c1cc(-c2ccc(Cn3ccc4c(F)ccc(C(=O)NC5CC6(C5)CC(C(=O)O)C6)c43)cc2)ccn1 (stereo not drawn) [Example 22, 6-(1-(4-(2-(dimethylamino)pyridin-4-yl)benzyl)-4-fluoro-1H-indole-7-carboxamido)spiro[3.3]heptane-2-carboxylic acid] |
| 0.07 µM | < 0.001 µM | O=C(NC1CC2(C1)CC(C(=O)O)C2)c1ccc(F)c2ccn(Cc3ccc4cc(F)ccc4c3)c12 (stereo not drawn) [Example 37, (Sa)-6-(4-fluoro-1-((6-fluoronaphthalen-2-yl)methyl)-1H-indole-7-carboxamido)spiro[3.3]heptane-2-carboxylic acid] |
| – | 0.0066 µM | O=C(NC1CC2(C1)CC(C(=O)O)C2)c1ccc(Cl)c2ccn(Cc3ccc(-c4ccncc4)cc3)c12 (stereo not drawn) [Example 67, (Sa)-6-(4-Chloro-1-(4-(pyridin-4-yl)benzyl)-1H-indole-7-carboxamido)spiro[3.3]heptane-2-carboxylic acid] |
| – | < 0.001 µM | N#Cc1ccc(-c2ccc(Cn3ncc4c(Cl)ccc(C(=O)NC5CC6(CC(CC(=O)O)C6)C5)c43)cc2)cc1 (stereo not drawn) [Example 145, (Ra)-2-(6-(4-Chloro-1-((4′-cyano-[1,1′-biphenyl]-4-yl)methyl)-1H-indazole-7-carboxamido)spiro[3.3]heptan-2-yl)acetic acid] |
